# Experimental data as given in article PMC9867029, “Effect of Salts on the Conformational Dynamics of the Cytochrome P450 OleP” (Molecules, 2023).
# Target: T1, OleP (CYP107D1) (Streptomyces antibioticus, UniProt Q59819)
# T1 sequence (Q59819 1-407): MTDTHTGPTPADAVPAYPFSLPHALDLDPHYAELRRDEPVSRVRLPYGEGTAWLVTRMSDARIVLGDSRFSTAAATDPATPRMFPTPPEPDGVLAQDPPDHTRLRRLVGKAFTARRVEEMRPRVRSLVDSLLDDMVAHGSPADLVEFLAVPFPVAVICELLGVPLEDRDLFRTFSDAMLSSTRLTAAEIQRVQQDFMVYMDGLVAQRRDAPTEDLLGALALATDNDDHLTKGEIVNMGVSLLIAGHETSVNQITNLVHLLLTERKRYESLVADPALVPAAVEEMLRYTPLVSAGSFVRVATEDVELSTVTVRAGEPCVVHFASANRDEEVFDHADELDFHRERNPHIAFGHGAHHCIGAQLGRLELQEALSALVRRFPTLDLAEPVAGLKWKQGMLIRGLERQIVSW
# Assay: UV-visible Soret spectral titration (type I shift), global hyperbolic fit
# Assay type: binding
# Source text: UV-visible Soret spectral titration (type I shift), global hyperbolic fit on OleP (CYP107D1)
structure (smiles),measurement,value
CC[C@H]1OC(=O)[C@H](C)[C@@H](O)[C@H](C)[C@@H](O)[C@@H](C)C[C@@H](C)C(=O)[C@H](C)[C@@H](O)[C@H]1C [6DEB],Kd,3.83 ± 0.06 µM
